Data set [1] is described as follows: Pharmacokinetic interaction between components in open case-control study. Format: in vivo, HIV-1 infected patients. As to conditions: between lamivudine and zidovudine or loviride. How it is done:
The triple combination of zidovudine (200 mg t.i.d.), lamivudine (300 mg b.i.d.) and loviride (100 mg t.i.d.) versus the double combination of zidovudine (200 mg t.i.d.) and loviride (100 mg t.i.d.) was assessed in an open case-control study. Twenty HIV-1 infected patients with a positive p24 antigen test at baseline were included. Both combinations were well tolerated. Serious drug-induced safety-related abnormalities were not observed. […] The median CD4 count (% versus baseline) during therapy in the group of patients treated with the triple combination were compared with the median CD4 count in the group of patients treated with the double combination in Table 1. The median p24 antigen count (% versus baseline) of the group of patients treated with the triple combination were compared with the median p24 antigen count of the group of patients treated with double combination in Table 2.

Data set [2] relates to CD4 cells. As to conditions: patients receiving established anti-HIV drugs alone; count then decreases again; cited from earlier work.

The values below come from patent publication EP0768881B1, “ANTI-HIV TRIPLE COMBINATION COMPRISING ZIDOVUDINE, LAMIVUDINE AND LOVIRIDE” (JANSSEN PHARMACEUTICA N.V., priority 1994, dated 1996).

With `Nc1ccn([C@H]2CS[C@@H](CO)O2)c(=O)n1` [lamivudine, (-)-2',3'-dideoxy-3'-thiacytidine], the pharmacokinetic interaction entry in data set [1] is given as “No clinically relevant pharmacokinetic interaction”. Moreover, the CD4 count increase result in data set [2] was “about 20%”.

In the case of `Cc1cn([C@H]2C[C@H](N=[N+]=[N-])[C@@H](CO)O2)c(=O)[nH]c1=O` [zidovudine, 3'-azido-3'-deoxythymidine], in data set [2], the CD4 count increase entry is given as “about 20%”.
